This is an account of results in patent publication EP4251148B1, “HISTAMINE H3 RECEPTOR ANTAGONISTS/INVERSE AGONISTS FOR THE TREATMENT OF AUTISM SPECTRUM DISORDER” (Richter Gedeon Nyrt., priority 2020, dated 2022).

For one data set, the target named is T1, H3 receptor (Rattus norvegicus, UniProt Q9QYN8).
T1 construct: from tissue; host or cells: whole living rat (central H3 receptors); animals from Janvier Elevage, France
As to the kind of experiment: imetit-induced dipsogenia test. The class given is in vivo, Harlan Wistar rats. Particulars: rats, test compound p.o. 30 min before imetit 3 mg/kg sc.; reversal of water intake. The source says:
Brain penetrant histamine H3 receptor agonists such as R-α-methylhistamine and imetit cause an acute increase in water intake in rodents (Galici et al., 2009; Barbier et al., 2007; Clapham and Kilpatrick, 1993; Garbarg et al., 1993). This dipsogenic effect is specific to H3 receptor activation as it can be antagonized selectively by centrally acting H3 antagonists (e.g., thioperamide or clobenpropit) and not by H1 or H2 […] such as mepyramide or loxtidine, respectively (Fox et al., 2002; Clapham and Kilpatrick, 1992). Therefore, the inhibition of H3 receptor-mediated dipsogenia can be used as a central pharmacodynamic measure of in vivo H3 receptor function following peripheral administration of antagonist/inverse agonist compounds (Raddatz et al., 2012; Medhurst et al., 2007; Fox et al., 2005).
The protocol has been derived from Clapham and Kilpatrick (1992) with modifications. Group-housed adult male Harlan Wistar rats (Janvier Elevage, France) (340-500 g at the time of testing) were used as experimental animals. Rats were repeatedly used for testing for a maximum of four to five times with one week of wash-out period between testing days. Before commencing drug-testing sessions, animals were first habituated to the test procedure without receiving any drug treatment. On habituation days animals were administered 5 mL/kg distilled water p.o. and 30 min later 1 mL/kg physiological saline was injected sc., while drinking water was withdrawn from the home-cages. After a further 30 min, rats were isolated in test cages, where they had access to tap water, but not to chow. Water consumption was measured 30 min later. Rats that had drunken at least 0.2 g water during this period were randomized into treatment groups. On experimental days animals were administered the test compound or vehicle p.o. and 30 min later 3 mg/kg of the H3 receptor agonist imetit was injected sc. Investigational compounds were given in a volume of 5 mL/kg. Imetit dihydrobromide (Tocris, UK) was dissolved in physiological saline and administered in a volume of 1 mL/kg. Directly after treatment with imetit, drinking water was withdrawn from the home-cages. After an additional 30 min, rats were isolated to test cages, where they had access to tap water, but not to chow. Water consumption was measured after a free drinking period of 10 min.
Means ± S.E. of water intake (in grams) were calculated for each group. Significance of drug effect was determined by ANOVA followed by the post hoc Duncan-test. Significance was considered at the p<0.05 level. The percental reversal of imetit-induced water intake was calculated from the group means using the formula as follows, percental reversal of dipsogenia equals 1-((IME-DRUG)/(IME-VEH))·100, where IME is water intake of the p.o. vehicle plus imetit group, VEH is water intake of p.o. vehicle plus sc. vehicle group, and DRUG is water intake of p.o. test compound plus sc. […] group. Percental reversal was plotted for each dose and an ED50 value was calculated from the fitted curve (reversal values greater than 100% were taken into account as 100% reversal) based on linear regression.

In data set [1] the test system is prenatally valproate treated rats. Description: tactile sensitivity measurement with von Frey filaments in the prenatal valproate model. As to conditions: p.o., 60 min after treatment, 18-day-old rats. The class given is in vivo, Wistar rats. The source says:
The prenatal valproate (VPA) model has excellent construct and face validity, therefore it is a widely accepted disease model of ASD. With respect to face validity, prenatal VPA exposure may lead to socio-communicational defects, excessive repetitive behaviors and increased sensitivity of various modalities (e.g., touch). […] Compounds that produced efficacy signals in ASD subjects comprise eg., oxytocin (Andari et al., PNAS 2010, 107:4389-4394).
In this method, time-mated female Wistar rats are administered a single dose of VPA (300 mg/kg, i.p.) on gestational day 12.5. Offspring are housed according to standard laboratory conditions until time of behavioral testing. Animals are housed in groups of 4 in conventional cages and maintained at 22-24°C on a standard 12-hour light/dark cycle, with food and water available ad libitum. […]
During the measurement with von Frey filaments, 18-day-old rats were placed separately in small cages (dimensions: 7 x 7 x 9 cm) with mesh floors. […] First, a baseline sensitivity value was determined, and animals were randomized into treatment groups based on this baseline. Sixty min after p.o. treatment sensitivity was measured again. A 50% sensitivity threshold was calculated based on the value of the last measured fiber thickness and the application pattern of the various filament thicknesses. […]

The test system of the next data set is BALB/C mice. As to the kind of experiment: three-chamber assay, social novelty session, BALB/C mouse model of ASD. Particulars: 10 mg/kg (top dose); ** p<0.01 vs. familiar. The class given is in vivo. The source says: The BALB/c mouse is a low-sociability, inbred line that is accepted as an idiopathic model of ASD (Brodkin, 2007; Burket et al., 2020; Ellegood, 2015; Jacome et al., 2011). Although the precise background of behavior is not known, the line carries a loss of function single nucleotide polymorphism in the tryptophane hydroxylase gene causing a 50% reduction in enzyme function (Russo et al., 2018). […] This model also has some predictive validity as some compounds that produced efficacy signals in humans have also been active in BALB/c mice such as D-cycloserine (Deutsch et al., 2012) or oxytocin (Teng et al., 2013).
The three-chamber assay was performed in an 8-channel LABORAS™ sociability system (Metris b.v., Hoofdorp, The Netherlands). […] Consequently, movements of target mice were not recorded. Just like in the classical LABORASTM set-up (Van de Weerd et al., 2001; Quinn et al., 2003), mechanical vibration generated by movement of the animals was transformed to electrical signals that were analyzed and the trajectory of the animals was determined. […]
During the behavioral assays, test mice were habituated first to the center compartment of the three-chamber apparatus with the guillotine doors closed for 2 min. […] During this test session the time spent in the center chamber as well as with direct contact or no contact on the social versus non-social side was recorded. […]

Data set [2] deals with prenatal valproate model of ASD in mice. As to conditions: 3 mg/kg intraperitoneally; cited from earlier work.
The conditions of data set [3]: 3 mg/kg intraperitoneally; cited from earlier work.
The test system of a further data set is monoamine oxidase A. Particulars: human and rat enzyme; cited from earlier work.
A further data set deals with monoamine oxidase B. Particulars: human and rat enzyme; slight preference for monoamine oxidase B; cited from earlier work.

T1 sequence (Q9QYN8 whole entry): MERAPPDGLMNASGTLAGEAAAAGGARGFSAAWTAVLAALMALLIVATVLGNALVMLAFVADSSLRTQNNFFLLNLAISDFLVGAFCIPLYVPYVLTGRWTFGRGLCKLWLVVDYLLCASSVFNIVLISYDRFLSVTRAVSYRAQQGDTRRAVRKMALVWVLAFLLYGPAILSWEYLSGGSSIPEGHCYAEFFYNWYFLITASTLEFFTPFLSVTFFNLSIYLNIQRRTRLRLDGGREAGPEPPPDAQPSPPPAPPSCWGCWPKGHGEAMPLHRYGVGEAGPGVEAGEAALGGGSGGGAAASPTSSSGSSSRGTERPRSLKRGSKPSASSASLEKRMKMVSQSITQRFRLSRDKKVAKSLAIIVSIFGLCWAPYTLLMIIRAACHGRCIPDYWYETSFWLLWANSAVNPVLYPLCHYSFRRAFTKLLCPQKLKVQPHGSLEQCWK

Take `C[C@@H]1CCCN1CCc1cc2cc(-c3ccc(C#N)cc3)ccc2o1` [ABT-239, 4-(2-{2-[(2R)-2-Methylpyrrolidin-1-yl]ethyl}-benzofuran-5-vl)benzonitrile]: the “imetit-induced dipsogenia ED50” value on H3 receptor came out at 0.26 mg/kg p.o.
Consider `CNC(=O)c1ccc(Oc2ccc3c(c2)CCN(C2CCC2)CC3)nc1` [GSK-189254, 6-[(3-cyclobutyl-1,2,4,5-tetrahydro-3-benzazepin-7-yl)oxy]-N-methylpyridine-3-carboxamide], for which, on H3 receptor, the “imetit-induced dipsogenia ED50” value came out at 0.14 mg/kg p.o. The “tactile hypersensitivity (threshold level of paw withdrawal to von Frey filaments)” value in data set [1] (0.1 mg/kg (middle dose), + p<0.05 vs. VPA, inverted U-shaped dose-response curve) is recorded as “reversed this tactile hypersensitivity”.
Consider `Cn1nc(N2CCC(OC(=O)N3CCN(C4CCC4)CC3)CC2)ccc1=O` [LML-134, 1-(1-methyl-6-oxo-1,6-dihydropyridazin-3-yl)piperidin-4-yl 4-cyclobutylpiperazine-1-carboxylate], for which the “imetit-induced dipsogenia ED50” value at H3 receptor is under 1 mg/kg p.o. The “social novelty (time spent with investigation of the novel animal)” value in the data set with BALB/C mice is given as “improve social novelty”. For the same compound, in data set [1] (10 mg/kg (top dose), ++ p<0.01 vs. VPA), the “tactile hypersensitivity (threshold level of paw withdrawal to von Frey filaments)” value is recorded as “reversed this tactile hypersensitivity”.
Consider `CCNC(=O)C1CC(F)(c2ccc(CN3CCCC3)c(F)c2)C1` (stereo not drawn) [PF-03654746, trans-N-Ethyl-3-fluoro-3-[3-fluoro-4-(1pyrrolidinylmethyl)phenyl]cyclobutanecarboxamide], for which the “imetit-induced dipsogenia ED50” value on H3 receptor was determined as 0.78 mg/kg p.o.
`O=C(c1ccc(CN2CCOCC2)cc1)N1CCN(C2CC2)CC1` [bavisant, (4-cyclopropylpiperazin-1-yl)-[4-(morpholin-4-ylmethyl)phenyl]methanone]: the “imetit-induced dipsogenia ED50” value at H3 receptor is listed as under 0.3 mg/kg p.o.
With `O=C(c1ccc(OCCCc2cnc[nH]2)cc1)C1CC1` [ciproxifan], the “social deficits and excessive repetitive behavior” value in data set [2] was “improved social deficits and excessive repetitive behavior”. In data set [3], the plasma exposures result is recorded as “micromolar range”. Also, the “inhibition of monoamine oxidase A” value in the data set on monoamine oxidase A is listed as “micromolar concentration range”. Further, the “inhibition of monoamine oxidase B” value with monoamine oxidase B is “micromolar concentration range”.
Consider `Clc1ccc(CCCOCCCN2CCCCC2)cc1` [pitolisant, 1-[3-[3-(4-chlorophenyl)propoxy]propyl]piperidine], for which the “imetit-induced dipsogenia ED50” value at H3 receptor is reported as 11 mg/kg p.o.
The same measure, in the same setting: the figure for `O=C(CN1CCOCC1)Nc1ccc(OC2CCN(C3CCC3)CC2)cc1` [samelisant, N-{4-[(1-cyclobutylpiperidin-4-yl)oxy]phenyl}-2-(morpholin-4-yl)acetamide] is under 1 mg/kg p.o.
